Laboratory results from the supplement of paper PMC8837787.

System: Saccharomyces cerevisiae ABC16-Green Monster
Assay: growth inhibition at single dose (up to 150 µM), below the 70% cut-off for dose-response; higher = more potent
Settings: 18 h; 30 °C; YPD
How it was run: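 Values are percent growth inhibition of drug-sensitive S. cerevisiae ABC16-Green Monster cells. Cells grown overnight in YPD at 30 °C were diluted to log phase (OD600 0.1–0.2), and each library compound was added at a single dose of 150 µM to 200 µl culture per well in 96-well plates, in biological duplicates, beside untreated cultures. OD600 was read at 0 h and after 18 h at 30 °C, and compounds under 70% in both replicates were not taken to dose-response.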

Row | Structure (SMILES) | growth inhibition at single dose [%]
1 | Cc1nn(C)c(C)c1CC(=O)Nc1ccc(-n2cnc3ccccc32)cc1 | < 70
2 | O=C(Nc1ccc(N2CCN(Cc3ccccc3)CC2)cc1)c1cccs1 | < 70
3 | COc1cc(C(F)(F)F)nc2ccc(C)c(N)c12 | < 70
4 | O=C(Nc1cccc(-c2ccc(NCCCN3CCCC3)nc2)c1)c1ccccc1 | < 70
5 | O=C(Nc1cc(Cl)cc(Cl)c1)Nc1cc(Cl)cc(Cl)c1 | < 70
6 | OC(CNCc1ccccc1)Cn1c2ccccc2c2ccccc21 (stereo not given) | < 70
7 | Cc1ccc(C(=O)OC(C)C(=O)N2CCCC2)cc1S(=O)(=O)N1CCCCC1 (stereo not given) | < 70
8 | CCOC(=O)c1ccc(Oc2nc3ccccc3nc2C(C#N)C(=O)OC)cc1 (stereo not given) | < 70
9 | COc1ccc(C2=NCCN2)cc1-c1cn(-c2cccc(C3=NCCN3)c2)nn1 | < 70
10 | CNC(=O)c1cc(S(=O)(=O)N2CCN(c3ccccn3)CC2)cs1 | < 70
11 | Cc1cc2nnc(-c3ccc(C(F)(F)F)cc3)n2[nH]1 | < 70
12 | CC(C)(C)OC(=O)N1CCC(Cn2nc(-c3cnc4ccccc4c3)c3c(N)ncnc32)CC1 | < 70
13 | COc1ccc(-c2nc(-c3cccc(NC(=O)Cc4ccc(F)cc4)c3)no2)cc1OC | < 70
14 | Cc1sc(NC(=O)c2ccco2)c(C(c2cccnc2)N2CCC(Cc3ccccc3)CC2)c1C (stereo not given) | < 70
15 | O=C(Nc1nnc(S)s1)c1cc(Br)ccc1Cl | < 70
16 | O=C(CCC1CCCCC1)Nc1cccc(-c2nnc(-c3ccco3)o2)c1 | < 70
17 | O=C(C1CCCCC1)N1CC(=O)N2CCc3ccccc3C2C1 (stereo not given) | < 70
18 | c1nc(NCc2ccc(CN3CCOCC3)cc2)c2sccc2n1 | < 70
19 | CCCc1cc(NCCN(C)C)n2ncc(-c3ccccc3)c2n1 | < 70
20 | COc1ccc(S(=O)(=O)N(Cc2cccs2)c2ccc3c(c2)OCCO3)cc1NC(C)=O | < 70
21 | COc1ccccc1C(=O)ON=C(N)Cc1cccc2ccccc12 | < 70
22 | O=C(Cn1nnc2ccccc2c1=O)c1ccc(C2CCCCC2)cc1 | < 70
23 | COc1cccc(Nc2nc(N)c3ccccc3n2)c1 | < 70
24 | OC1CCC(Nc2nn3cc(-c4ccccc4)nc3s2)CC1 (stereo not given) | < 70

Row | Structure (SMILES) | growth inhibition at single dose [%]
25 | CS(=O)(=O)N1CCC(Cn2nc(Cc3cccc4ccccc34)c3c(N)ncnc32)CC1 | < 70
26 | N#Cc1ccc(NCCNc2nc3ccccc3s2)nc1 | < 70
27 | O=C(Nc1cnc2ccccc2c1)c1cccc(-n2cnnn2)c1 | < 70
28 | Cc1ccc(-n2c(C)cc(C(=O)COC(=O)c3ccc[nH]c3=O)c2C)cc1C | < 70
29 | COC(=O)c1cc(OC)c(OC)cc1NS(=O)(=O)c1ccc(OC)cc1 | < 70
30 | CN1N=C2c3ccccc3CCC2C1c1ccc(C(F)(F)F)cc1 (stereo not given) | < 70
31 | Cn1cc(/C=C/C(=O)Nc2ncc(Cc3ccccc3)s2)cn1 | < 70
32 | Cc1ccc(NC(=O)c2[nH]nc3c2CCCC3)cc1Cl | < 70
33 | COCCn1c(C)cc(C(=O)CSc2nnc(C)s2)c1C | < 70
34 | Cc1cc(N(C)C)nc(Nc2ccc(NC(=O)Nc3ccccc3)cc2)n1 | < 70
35 | CC1CCN(Cc2c(O)ccc3cc(-c4nc5ccccc5s4)c(=O)oc23)CC1 | < 70
36 | O=C(CSc1nnc(/C=C/c2ccc(F)cc2)[nH]1)N(c1ccccc1)C1CCCCC1 | < 70
37 | CN1CCN(S(=O)(=O)c2ccc(-c3ccc4c(Nc5ccc6nn[nH]c6c5)ccnc4c3)cc2)CC1 | < 70
38 | O=C(Nc1ccc(N2CCNCC2)nc1)c1oc(-c2ccccc2)nc1C(F)(F)F | < 70
39 | Cc1ccccc1OCCSc1nc2ccc(NC(=O)c3cccs3)cc2s1 | < 70
40 | COc1ccc(CNC2CCN(c3ccc(NC(=O)c4cccc(Cl)c4)cc3)CC2)cc1OC | < 70
41 | NC(=O)c1cc(Br)ccc1OCCOc1ccccc1 | < 70
42 | CN(CCO)c1ccc(C(=O)c2ccc(N(C)CCO)cc2)cc1 | < 70
43 | Cc1nccnc1-c1ccnn1C(=O)Nc1cc(Cl)cc(Cl)c1 | < 70
44 | COc1ccc(C2c3ccc4ccccc4c3Oc3ncn(CCCn4ccnc4)c(=N)c32)cc1OC (stereo not given) | < 70
45 | CCOc1ccc(Nc2c3ccccc3nc3ccccc23)cc1 | < 70
46 | Cc1cc(N2CCN(C3CCCC3)CC2)n2c(nc3ccccc32)c1C#N | < 70
47 | Cc1nn(-c2ccccc2)c(Oc2ccccc2)c1/C=C1\C(=O)Nc2ccccc21 | < 70
48 | Cc1nc2ccccc2c(O)c1CC=C(Cl)Cl | < 70

Row | Structure (SMILES) | growth inhibition at single dose [%]
49 | COc1ccc(-c2nonc2NC(=O)c2cccc(Cl)c2)cc1OC | < 70
50 | CCc1cc(C(=O)Nc2ncccc2O)sc1C | < 70
51 | Nc1ccc(-c2nc3cc(Oc4ccc(Oc5ccc6[nH]c(-c7ccc(N)cc7)nc6c5)cc4)ccc3[nH]2)cc1 | < 70
52 | CC1CC(Nc2ccccc2)c2ccccc2N1S(=O)(=O)c1ccc(Br)cc1 (stereo not given) | < 70
53 | O=C(Nc1ccc(CN2CCOCC2)cc1)c1ccc(-c2ccc(Br)cc2)o1 | < 70
54 | Cc1cc(C(=O)NCc2nnc3ccccn23)c(C)n1C1CCCCC1 | < 70
55 | CC(C)C(NC(=O)Cc1cccc2ccccc12)C(=O)Nc1cccc(C#N)c1 (stereo not given) | < 70
56 | Cc1ccnc(NC(c2cccc(OCc3ccccc3)c2)c2ccc3cccnc3c2O)c1 (stereo not given) | < 70
57 | Cc1cc(C)c(C#N)c(SCC(=O)N(C)Cc2cnn(-c3ccccc3)c2)n1 | < 70
58 | CC(C)(C)CC(C)(C)NCC(O)COc1ccc2c(c1)CCC2 (stereo not given) | < 70
59 | O=C(Nc1cc(S(=O)(=O)N2CCCC2)ccc1O)c1sccc1-n1cccc1 | < 70
60 | Clc1ccc(-n2cc(COc3ccnc4ccccc34)nn2)cc1 | < 70
61 | Cc1nn2c(=O)c(Cc3ccccc3)c(C)[nH]c2c1-c1ccc(F)cc1 | < 70
62 | O=C1O[C@@H](CO)CN1c1cc(F)c(C2=CCN(Cc3ccccc3)CC2)c(F)c1 | < 70
63 | CCOC(=O)c1[nH]c(C)c(C(=O)CN(C)S(=O)(=O)c2c(C)noc2C)c1C | < 70
64 | CC[C@H](CO)NCCN[C@H](CC)CO | < 70
65 | CCNC(=O)C(C)Nc1nc(-c2cccnc2)nc2sc(C)c(C)c12 (stereo not given) | < 70
66 | NC(=O)c1cc(NC(=O)c2cccs2)ccc1N1CCCCC1 | < 70
67 | O=C(Nc1ccc(Br)cc1)Nc1cccc(Cl)c1 | < 70
68 | CC1CC(NC(=O)c2cc3c(=O)n4ccccc4nc3n2C)CC(C)(C)C1 (stereo not given) | < 70
69 | COc1ccccc1NC(=O)NCc1nc(-c2ccccc2)c[nH]1 | < 70
70 | CN(C)CCNC(=O)N1CCCN(c2ncnc3cc(-c4ccccc4)sc23)CC1 | < 70
71 | COc1cccc(NC(=O)[C@H](C(C)C)n2c(=O)[nH]c3ccccc3c2=O)c1 | < 70
72 | O=C(Nc1ccc(N2CCN(c3ncccc3C(F)(F)F)CC2)nc1)c1cccs1 | < 70

Row | Structure (SMILES) | growth inhibition at single dose [%]
73 | COc1ccc(-c2cc3c(nn2)-c2ccccc2C3=O)cc1 | < 70
74 | Cc1nn2c(=O)c3c([nH]c2c1-c1ccc(Cl)cc1)CCCC3 | < 70
75 | COc1ccc(S(=O)(=O)N(Cc2ccc(C(=O)NC3CC3)cc2)C2CC2)cc1OC | < 70
76 | CCc1ccc(CNCC(O)c2ccccc2)cc1 (stereo not given) | < 70
77 | CCCS(=O)(=O)c1cnc(C2COc3ccccc3O2)nc1N (stereo not given) | < 70
78 | Cc1ccc(Oc2c(C)[nH]c(-c3ccccc3)nc2=O)cc1 | < 70
79 | O=C(Nc1ccc(N2CCCC2)cn1)c1cc(Cl)ccn1 | < 70
80 | COc1ccc2nccc(NC(=O)C3CCN(CCc4ccc(Cl)cc4)CC3)c2n1 | < 70
81 | O=C(NC1CCN(c2ccnc3ccccc23)C1)c1cccc(C(F)(F)F)c1 (stereo not given) | < 70
82 | CC(=O)Nc1nnc(SCc2c(C)cc(C(C)(C)C)cc2C)s1 | < 70
83 | Cc1ccc(-c2noc(CN3CCN(c4cc(C)nc(N)n4)CC3)n2)cc1 | < 70
84 | Brc1cnc2nc(-c3ccccc3)[nH]c2c1 | < 70
85 | Cc1nnc(NCc2cccc(Cl)c2)c2ccccc12 | < 70
86 | CS(=O)(=O)c1cccc(-c2cnc3[nH]cc(-c4ccc(CCC(=O)O)cc4)c3c2)c1 | < 70
87 | Cc1cc(C(=O)CSc2nc3ccccc3[nH]2)c(C)n1-c1ccc(F)cc1 | < 70
88 | CCOc1c(Cl)cc(CNC(C)C(O)c2ccccc2)cc1OC (stereo not given) | < 70
89 | N=c1c2ccccc2nnn1-c1cccc(C(F)(F)F)c1 | < 70
90 | O=C(Nc1cc(Cl)cc(Cl)c1)c1cc(Br)ccc1O | < 70
91 | FC(F)(F)c1cccc(CNC2CCN(CCc3ccccc3)CC2)c1 | < 70
92 | COc1cc2c(cc1OC)C1=NNC(=O)C1=NC(C)(C)C2 | < 70
93 | CC(=O)Nc1ccc(-c2noc(CC3CCCN(Cc4cccc(F)c4C)C3)n2)cc1 (stereo not given) | < 70
94 | Cc1cc(Nc2ccc(C)c(Cl)c2)n2nc(C(F)(F)F)nc2n1 | < 70
95 | O=C(NCc1ccc(N2CCCC2=O)cc1)c1cccnc1OCC(F)(F)F | < 70
